{"source": "paper PMC8188729", "about": "(Nature, 2020)", "key": {"[1]": {"tested_on": "HIV-1 recombinant strains resistant to NRTIs, NNRTIs, INSTIs, PIs or MIs", "format": "cell-based"}, "Cytotoxicity assay [2]": {"experiment": "Cytotoxicity assay", "format": "cell-based", "details": "human, monocyte-derived macrophages"}, "Cytotoxicity assay [3]": {"experiment": "Cytotoxicity assay", "format": "cell-based", "details": "human, Gal-PC-3 cells"}, "Cytotoxicity assay [4]": {"experiment": "Cytotoxicity assay", "format": "cell-based", "details": "human, primary CD4+ T-lymphocytes"}, "Cytotoxicity assay [5]": {"experiment": "Cytotoxicity assay", "format": "cell-based", "details": "human, MT-4 cells"}, "Cytotoxicity assay [6]": {"experiment": "Cytotoxicity assay", "format": "cell-based", "details": "human, quiescent PBMCs"}, "Cytotoxicity assay [7]": {"experiment": "Cytotoxicity assay", "format": "cell-based", "details": "human, primary human hepatocytes"}, "Cytotoxicity assay [8]": {"experiment": "Cytotoxicity assay", "format": "cell-based, human", "details": "human, stimulated PBMCs"}, "Cytotoxicity assay [9]": {"experiment": "Cytotoxicity assay", "format": "cell-based", "details": "human, Gal-HepG2 cells"}, "Cytotoxicity assay [10]": {"experiment": "Cytotoxicity assay", "format": "cell-based", "details": "human, MRC-5 cells"}, "Cytotoxicity assay [11]": {"experiment": "Cytotoxicity assay", "format": "cell-based", "details": "human, Huh-7 cells"}}, "note": "Several values for one entry are separate records, joined by “and”; a condition that tells them apart may be missing. Identical values can stand only once."}
{"smiles": "COc1cc2c(cc1Cc1cccc(Cl)c1F)c(=O)c(C(=O)O)cn2[C@H](CO)C(C)C", "note": "[EVG, elvitegravir, reference compound]", "values": [{"measurement": "Fold resistance", "setting": "[1]", "result": ">53.8 (3) and >52.9 (3)"}]}
{"smiles": "C=C(C)[C@@H]1CC[C@]2(C(=O)O)CC[C@]3(C)[C@H](CC[C@@H]4[C@@]5(C)CC[C@H](OC(=O)CC(C)(C)C(=O)O)C(C)(C)[C@@H]5CC[C@]43C)[C@@H]12", "note": "[BVM, bevirimat, reference compound]", "values": [{"measurement": "Fold resistance", "setting": "[1]", "result": ">67.5 (6) and >67.5 (7)"}]}
{"smiles": "COc1ccc(C[C@H](N)C(=O)N[C@H]2[C@@H](O)[C@H](n3cnc4c(N(C)C)ncnc43)O[C@@H]2CO)cc1", "note": "[Puromycin, reference compound]", "values": [{"measurement": "CC50", "setting": "Cytotoxicity assay [2]", "result": "4500 ± 2800", "unit": "nM"}, {"measurement": "CC50", "setting": "Cytotoxicity assay [3]", "result": 400, "unit": "nM"}, {"measurement": "CC50", "setting": "Cytotoxicity assay [4]", "result": "200 ± 100", "unit": "nM"}, {"measurement": "CC50", "setting": "Cytotoxicity assay [5]", "result": "200 ± 100", "unit": "nM"}, {"measurement": "CC50", "setting": "Cytotoxicity assay [6]", "result": "600 ± 1500", "unit": "nM"}, {"measurement": "CC50", "setting": "Cytotoxicity assay [7]", "result": "1600 ± 600", "unit": "nM"}, {"measurement": "CC50", "setting": "Cytotoxicity assay [8]", "result": "200 ± 100", "unit": "nM"}, {"measurement": "CC50", "setting": "Cytotoxicity assay [9]", "result": "1000 ± 1700", "unit": "nM"}, {"measurement": "CC50", "setting": "Cytotoxicity assay [10]", "result": 300, "unit": "nM"}, {"measurement": "CC50", "setting": "Cytotoxicity assay [11]", "result": 500, "unit": "nM"}]}
{"smiles": "O=C1Nc2ccc(Cl)cc2[C@@](C#CC2CC2)(C(F)(F)F)O1", "note": "[EFV, efavirenz, reference compound]", "values": [{"measurement": "Fold resistance", "setting": "[1]", "result": ">22.5 (3)"}]}
